17 molecules from patent US7550588B2, “Homotropanes with central nervous system activity” (The Research Foundation of State University of New York, priority 2006, dated 2009) can be followed below.

Data set [1] has as its target T1, serotonin transporter (SERT) (Rattus norvegicus, UniProt P31652).
T1 construct: striatum and frontal cortex dissected from frozen Sprague-Dawley rat brains (Pel-Freez, Rogers, Ark.); tissue Pel-Freez, Rogers, Ark; host or cells: rat frontal cortex membranes (frozen Sprague-Dawley rat brains)
Kind of data set: Displacement of [3H]paroxetine binding at 5-HT transport sites in rat frontal cortex membranes. Particulars: for Ratio SERT/DAT: SERT binding value divided by DAT binding value; for binding affinity at SERT (in words): summary of Table 1. (Loss of bound radioactivity is the signal in a displacement assay; it reports binding, not function.)

For data set [2], the target named is T2, Dopamine transporter (DAT) (Rattus norvegicus, UniProt P23977).
T2 construct: striatum and frontal cortex dissected from frozen Sprague-Dawley rat brains (Pel-Freez, Rogers, Ark.); tissue Pel-Freez, Rogers, Ark; host or cells: rat striatum membranes (frozen Sprague-Dawley rat brains)
Kind of data set: Displacement of [125I]RTI-55 binding at dopamine transport sites in rat striatum membranes. Particulars: for binding affinity at DAT (in words): summary of Table 1.

The mark [3] stands for this setting: [3H]paroxetine 0.4 nM, rat frontal cortex membranes, Cheng-Prusoff, mean ± S.E.M., tested as racemates, read-out: Binding (nM) SERT (converted).
[4] abbreviates: [125I]RTI-55 10 pM, rat striatum membranes, mean ± S.E.M., at least three experiments, tested as racemates, read-out: Binding (nM) DAT (converted).

Structures are written as SMILES. Like-named read-outs stand apart in the source and are kept apart here. Some results are limits rather than exact numbers.

T2 sequence (P23977 whole entry): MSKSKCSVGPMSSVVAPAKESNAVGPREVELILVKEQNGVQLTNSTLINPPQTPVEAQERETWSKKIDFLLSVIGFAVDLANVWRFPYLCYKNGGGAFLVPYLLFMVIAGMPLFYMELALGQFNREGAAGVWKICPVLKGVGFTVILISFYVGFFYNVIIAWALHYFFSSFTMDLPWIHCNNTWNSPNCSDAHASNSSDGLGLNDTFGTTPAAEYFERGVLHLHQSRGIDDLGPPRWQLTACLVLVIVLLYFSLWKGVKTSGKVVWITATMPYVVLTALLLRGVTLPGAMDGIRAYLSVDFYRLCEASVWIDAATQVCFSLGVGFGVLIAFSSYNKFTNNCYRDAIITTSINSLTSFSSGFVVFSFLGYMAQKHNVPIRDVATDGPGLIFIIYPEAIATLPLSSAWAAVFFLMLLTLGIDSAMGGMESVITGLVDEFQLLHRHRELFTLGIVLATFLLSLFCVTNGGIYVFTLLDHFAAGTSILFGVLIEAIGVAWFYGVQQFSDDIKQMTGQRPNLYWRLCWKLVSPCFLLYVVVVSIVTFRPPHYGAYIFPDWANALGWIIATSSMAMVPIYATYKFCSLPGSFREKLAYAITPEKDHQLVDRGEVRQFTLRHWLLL
T1 sequence (P31652 whole entry): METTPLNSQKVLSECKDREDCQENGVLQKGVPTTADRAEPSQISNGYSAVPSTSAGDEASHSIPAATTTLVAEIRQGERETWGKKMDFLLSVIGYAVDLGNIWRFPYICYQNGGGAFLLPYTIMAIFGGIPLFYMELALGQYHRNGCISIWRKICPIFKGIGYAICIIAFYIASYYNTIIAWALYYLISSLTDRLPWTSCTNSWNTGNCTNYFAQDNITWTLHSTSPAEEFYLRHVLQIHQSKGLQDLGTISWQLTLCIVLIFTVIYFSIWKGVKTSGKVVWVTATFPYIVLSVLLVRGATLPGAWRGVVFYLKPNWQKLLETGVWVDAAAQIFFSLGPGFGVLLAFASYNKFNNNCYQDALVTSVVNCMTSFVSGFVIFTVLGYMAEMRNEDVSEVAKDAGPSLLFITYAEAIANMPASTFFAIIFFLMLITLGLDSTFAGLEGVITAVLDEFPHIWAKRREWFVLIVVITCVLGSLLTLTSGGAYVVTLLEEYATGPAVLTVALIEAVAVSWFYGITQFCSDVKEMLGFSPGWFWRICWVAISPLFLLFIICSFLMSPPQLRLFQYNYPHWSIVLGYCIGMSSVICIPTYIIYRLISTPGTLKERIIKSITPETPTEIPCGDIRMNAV

Regarding `CCC(=O)[C@@H]1C2CCC(C[C@@H]1c1ccc(C)cc1)CN2C` (relative stereo) [12a, 6-Methyl-4β-propionyl-3β-(p-tolyl)-6-azabicyclo[3.2.2]nonane], in data set [1], the Ki was 2230 ± 410 nM and the “Ratio SERT/DAT” value is reported as 19. In data set [2], the IC50 was determined as 117 ± 13 nM.

On to `CCC(=O)C1C(c2ccc(Cl)cc2)CC2CCC1N(C)C2` (stereo not drawn) [12d, 3β-(4-Chlorophenyl)-6-methyl-4β-propionyl-6-azabicyclo[3.2.2]nonane], for which, in data set [1], the Ki is 860 nM and the “Ratio SERT/DAT” value worked out at 23. In data set [2], this molecule gave an IC50 of 38.1 nM.

Consider `CCC(=O)C1C(c2ccc(C)cc2)CC2CCC1N(C)C2=O` (stereo not drawn) [compound 27, 6-Methyl-4β-propionyl-3β-(p-tolyl)-6-azabicyclo[3.2.2]nonan-7-one], for which the Ki in data set [1] (setting [3]) was over 2500 nM. Besides, in data set [1], the “binding affinity at SERT (in words)” value is given as “very low binding affinity”. The IC50 in data set [2] (setting [4]) was 7000 nM. Further, in data set [2], the “binding affinity at DAT (in words)” value is given as “very low binding affinity”.

As to `CCC(=O)[C@H]1[C@@H](c2ccc(C)cc2)[C@H](C)[C@@H]2CC[C@H]1N(C)C2` (racemic) [12g, 2α,6-Dimethyl-4β-propionyl-3β-(p-tolyl)-6-azabicyclo[3.2.2]nonane], the Ki in data set [1] was over 2500 nM. This molecule also gave an IC50 in data set [2] of 1830 nM.

The melting point is the temperature, or range, at which the solid turns liquid. On to `CCC(=O)C1C(c2ccc(C)cc2)C(c2ccccc2)C2(C)CCC1N(C)C2` (stereo not drawn) [12j, 1,6-Dimethyl-2α-phenyl-4β-propionyl-3β-(p-tolyl)-6-azabicyclo[3.2.2]-nonane], for which the melting point was in the range of 141 to 144 °C. In data set [1], this molecule came in with a Ki of over 2500 nM. For the same molecule, the IC50 in data set [2] is 5600 nM.

Take `C=Cc1ccc(C2CC3CCC(C2C(=O)CC)N(C)C3)cc1` (stereo not drawn) [12e, 3β-(4-Ethenylphenyl)-6-methyl-4β-propionyl-6-azabicyclo[3.2.2]nonane]: in data set [1], the Ki is 116 nM and the “Ratio SERT/DAT” value was determined as 1.9. Moreover, in data set [2], the IC50 is 75 nM.

`CCC(=O)[C@@H]1C2CCC(CN2)C[C@H]1c1ccc(C)cc1` (relative stereo) [18a, 4β-Propionyl-3α-(p-tolyl)-6-azabicyclo[3.2.2]nonane]: in data set [1], the Ki was determined as 469 ± 32 nM, the “Ratio SERT/DAT” value is reported as 2.5 and the “binding affinity at SERT (in words)” value is given as “relatively strong binding”. Also, in data set [2], the IC50 turned out to be 187 ± 55 nM and the “binding affinity at DAT (in words)” value is recorded as “relatively strong binding”.

With `CCC(=O)C1C2CCC(CC1c1ccc(C)cc1)N(C)C2` (stereo not drawn) [compound 23, 6-Methyl-2α-propionyl-3β-(p-tolyl)-6-azabicyclo[3.2.2]nonane], the IC50 in data set [2] (setting [4]) is 4700 ± 900 nM. Also, in data set [2], the “binding affinity at DAT (in words)” value is “very low binding affinity”.

On to `C=C(C)c1ccc([C@H]2C[C@@H]3CC[C@H]([C@H]2C(=O)CC)N(C)C3)cc1` (racemic) [12f, 6-Methyl-4β-propionyl-3β-(4-isopropenylphenyl)-6-azabicyclo[3.2.2]nonane], for which, in data set [1], the Ki was 32.8 nM and the “Ratio SERT/DAT” value came to 0.03. Besides, the “selectivity for SERT” value in data set [1] (SERT versus DAT binding) is listed as “most selective for SERT”. In data set [2], this molecule showed an IC50 of 880 nM.

Turning to `CCC(=O)[C@@H]1C2CCC(C[C@H]1c1ccc(C)cc1)CN2C` (relative stereo) [13a, 6-Methyl-4α-propionyl-3β-(p-tolyl)-6-azabicyclo[3.2.2]nonane], in data set [1] (setting [3]), the Ki is over 2500 nM. In data set [1], the “binding affinity at SERT (in words)” value is recorded as “very low binding affinity”. Also, the IC50 in data set [2] (setting [4]) is 1160 ± 240 nM. For the same molecule, in data set [2], the “binding affinity at DAT (in words)” value is recorded as “very low binding affinity”.

`CCC(=O)C1C(c2ccc(C)cc2)C(c2ccccc2)C2CCC1N(C)C2` (stereo not drawn) [12h, 6-Methyl-2α-phenyl-4β-propionyl-3β-(p-tolyl)-6-azabicyclo[3.2.2]nonane] had a melting point of 172 to 173 °C. For the same molecule, the Ki in data set [1] is over 2500 nM. Further, the IC50 in data set [2] is 4100 nM.

As to `CCC(=O)[C@H]1[C@@H](c2ccc(C(C)C)cc2)C[C@@H]2CC[C@H]1N(C)C2` (racemic) [12c, 3β-(4-Isopropylphenyl)-6-methyl-4β-propionyl-6-azabicyclo[3.2.2]nonane], in data set [1], the Ki was 1760 nM and the “Ratio SERT/DAT” value amounted to 0.23. The same molecule gave an IC50 in data set [2] of 7500 nM.

With `CCC(=O)[C@@H]1C2CCC(C[C@@H]1c1ccc3ccccc3c1)CN2C` (relative stereo) [12b, 6-Methyl-3β-(2-naphthyl)-4β-propionyl-6-azabicyclo[3.2.2]nonane], in data set [1], the Ki is 13.4 ± 0.0138 nM, the “Ratio SERT/DAT” value is 4.8 and the “binding affinity at SERT (in words)” value is listed as “strongest binding affinity”. Also, in data set [2], the IC50 was 2.8 nM and the “binding affinity at DAT (in words)” value is reported as “strongest binding affinity”.

Consider `CCC(=O)[C@@H]1C2CCC(CN2)C[C@@H]1c1ccc(C)cc1` (relative stereo) [compound 19, 4β-Propionyl-3β-(p-tolyl)-6-azabicyclo [3.2.2]nonane], for which, in data set [1], the Ki amounted to 156 ± 26 nM and the “Ratio SERT/DAT” value was 6.3. This molecule showed an IC50 in data set [2] of 24.9 ± 5.6 nM.

Take `C=C(C)c1ccc([C@@H]2C[C@@H]3CC[C@@H](NC3)[C@H]2C(=O)CC)cc1` (racemic) [18b, 4β-Propionyl-3α-(4-isopropenylphenyl)-6-azabicyclo[3.2.2]nonane]: in data set [1], the “Ratio SERT/DAT” value is listed as 0.02 and the “binding affinity at SERT (in words)” value is given as “relatively strong binding”. Further, the Ki in data set [1] (setting [3]) is 6.48 nM. In data set [2] (setting [4]), the IC50 was 370 nM. Moreover, the “binding affinity at DAT (in words)” value in data set [2] is “relatively strong binding”.

On to `CCC(=O)[C@@H]1C2CCC(C[C@H]1c1ccc3ccccc3c1)CN2C` (relative stereo) [13b, 6-Methyl-3β-(2-naphthyl)-4α-propionyl-6-azabicyclo[3.2.2]nonane], for which, in data set [1], the Ki was 6.2 nM and the “Ratio SERT/DAT” value was “— 0.3”. The molecule further gave an IC50 in data set [2] of 20.8 nM.

With `CCC(=O)C1C(c2ccc(C)cc2)C(C)C2(C)CCC1N(C)C2` (stereo not drawn) [12i, 1,2α,6-Trimethyl-4β-propionyl-3β-(p-tolyl)-6-azabicyclo[3.2.2]nonane], in data set [1], the Ki was over 2500 nM. The molecule further gave an IC50 in data set [2] of 2140 nM.
